Measured values as given in patent US20240417408A1, “SMALL MOLECULE INHIBITORS OF KRAS G12C MUTANT” (MERCK SHARP & DOHME CORP., priority 2021, published 2024).

Assays:
[1] = molecular target: T1, biotinylated KRAS protein containing G12C/C51S/C80L/C118S mutations (SEQ ID NO: 3) (Homo sapiens, UniProt P01116, C118S/C51S/C80L/G12C); test: Test Example 4: SOS-catalyzed nucleotide exchange assay (TR-FRET); type: biochemical; conditions: 60-minute incubation with compound, then SOS and GTP, read-out: GNE IC50
T1 construct: biotin acceptor peptide (Avi-type, […]
Description: Test Example 4: Procedure for SOS-Catalyzed Nucleotide Exchange Assay
The SOS-catalyzed nucleotide exchange assay utilizes a preformed complex of recombinant biotinylated KRAS protein containing G12C/C51S/C80L/C118S mutations (SEQ ID NO: 3) (referred to as Biotinylated KRAS G12C protein hereafter), Bodipy-GDP, and Terbium-streptavidin. Compounds are added to this complex and then after a 60-minute incubation time the mixture is treated with SOS and unlabeled GTP. Small molecule inhibitors stabilize the Bodipy-GDP complex whereas the untreated protein rapidly exchanges Bodipy-GDP for unlabeled GTP resulting in reduced TR-FRET signal.
Biotinylated KRAS G12C protein is diluted to 2 μM in an EDTA buffer (20 mM HEPES, 50 mM sodium chloride, 10 mM EDTA, and 0.01% Tween) and incubated at room temperature for one hour. This mixture is then further diluted to 90 nM in an assay buffer (20 mM HEPES, 150 mM sodium chloride, 10 mM magnesium chloride, and 0.005% Tween) containing 15 nM of Terbium-Streptavidin (Invitrogen, catalog #PV3577) and 900 nM of Bodipy-GDP (Invitrogen, G22360) and incubated at room temperature for six hours. This solution is referred to as Biotinylated KRAS G12C stock solution and is then diluted to 9 nM in assay buffer to give the KRAS G12C assay solution.
(§1) Each test compound (10 mM stock in DMSO) is diluted in DMSO to make a 10-point, 3-fold dilution series in a 384-well low dead volume microplate (Labcyte, catalog #LP-0200). Once titrations are made, 10 nL of the diluted compounds is acoustically dispensed into a 384-well plate (Corning, catalog #3820) using an Echo 550 (Labcyte).
Each well receives 6 μL of Biotinylated KRAS G12C assay solution using a BioRAPTR (Beckman Coulter) and is incubated at room temperature for 60 minutes in a humidified chamber. Each well then receives 3 μL of 120 nM recombinant human SOS protein and 9 mM GTP (Sigma, G8877) in assay buffer and is incubated at room temperature for 60 minutes in a humidified chamber.
(§2) The time-resolved fluorescence resonance energy transfer signal of both plates is measured on an Envision (PerkinElmer) plate reader: Excitation filter=340 nm; emission 1=495 nm; emission 2=520 nm; dichroic mirror=D400/D505; delay time=100 μs. The signal of each well is determined as the ratio of the emission at 520 nm to that at 495 nm. Percent effect of each well is determined after normalization to control wells containing DMSO (no effect) or a saturating concentration of inhibitor (max effect). The apparent effect as a function of compound concentration is fit to a four-parameter logistic equation.

[2] = molecular target: T2, Biotinylated KRAS G12C protein and GST-tagged Ras binding domain of c-RAF (Homo sapiens, UniProt P01116, C118S/C51S/C80L/G12C); test: Test Example 5: RAS:RAF-RBD binding assay (TR-FRET); conditions: 30-minute incubation with compound, then GST-c-RAF RBD, read-out: cRaf IC50
T2 construct: biotin acceptor peptide (Avi-type, […]
Description: Test Example 5: Procedure for RAS:RAF-RBD Binding Assay
The RAF-Ras binding domain (RBD) protein interaction assay utilizes Biotinylated KRAS G12C protein (SEQ ID NO: 3) and the GST-tagged Ras binding domain of c-RAF (residues 50-132) from Jena Biosciences). Compounds are added to KRAS and then after a 30-minute incubation time the RAF-RBD and detection antibodies are added. Small molecule inhibitors that block the interaction of c-RAF-RBD prevent generation of a TR-FRET signal.
Biotinylated KRAS G12C protein is diluted to 20 nM in assay buffer (20 mM HEPES pH 7.5, 150 mM sodium chloride, 10 mM magnesium chloride, and 0.01% Tween20).
as §1, with “made, 50” for “made, 10”, “into” for “into a”, “384-well plates” for “384-well plate”, “Echo 655” for “Echo 550”
Each well of the assay plate receives 5 μL of Biotinylated KRAS G12C assay solution and is incubated at room temperature for 30 minutes. Each well then receives 5 μL of 100 nM GST-c-RAF RBD protein and a 1:100 dilution of both anti-GST-d2 (Cisbio catalog #61GSTDLA) and Strepavidin-Tb cryptate (Cisbio catalog #610SATLA) in assay buffer and the plate is mixed and briefly centrifuged followed by a 60 minute incubation at room temperature.
as §2, with “dichroic mirror=LANCE/DELFIA DUAL/Bias; Emission1=615” for “Excitation filter=340”, “Emission2=665” for “emission 1=495”, “nm;” for “nm; emission 2=520 nm; dichroic mirror=D400/D505;”, “time=[…].” for “time=100 μs.”, “665” for “520”, “615” for “495”

T1 sequence (P01116 with tags, fused parts or gaps isoform P01116-2 G12C/C51S/C80L/C118S): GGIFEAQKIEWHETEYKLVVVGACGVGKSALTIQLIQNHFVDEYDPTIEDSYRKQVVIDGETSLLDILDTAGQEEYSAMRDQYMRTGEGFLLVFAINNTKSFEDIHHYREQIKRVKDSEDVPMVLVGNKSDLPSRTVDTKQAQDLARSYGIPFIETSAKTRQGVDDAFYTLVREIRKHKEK
T2 sequence (P01116 with tags, fused parts or gaps isoform P01116-2 G12C/C51S/C80L/C118S): as above

Row | Structure (SMILES) | IC50 [1] | IC50 [2]
1 | C#Cc1cccc2cccc(C3Cc4nc(OC[C@]5(CO)CC5(F)F)nc(N5CCN(C(=O)/C=C/CN6CCC(OC)CC6)[C@@H](CC#N)C5)c4CO3)c12 (stereo partly drawn) [Example 24, 2-((2S)-4-(2-(((R)-2,2-difluoro-1-(hydroxymethyl)cyclopropyl)methoxy)-7-(8-ethynylnaphthalen-1-yl)-7,8-dihydro-5H-pyrano[4,3-d]pyrimidin-4-yl)-1-((E)-4-(4-methoxypiperidin-1-yl)but-2-enoyl)piperazin-2-yl)acetonitrile] | 0.055 µM | > 50 µM
2 | C#Cc1cccc2cccc([C@@H]3Cc4nc(OC[C@@]56CCCN5C[C@H](F)C6)nc(N5CCN(C(=O)/C=C/CN6CCC(OC)CC6)[C@@H](CC#N)C5)c4CO3)c12 (single isomer, unassigned) [Example 25b] | 0.0016 µM | 0.074 µM
3 | COC1CCN(C/C=C/C(=O)N2CCN(c3nc(OC[C@@]45CCCN4C[C@H](F)C5)nc4c3CCC3(CCCc5ccccc53)O4)C[C@@H]2CC#N)CC1 (stereo partly drawn) [Example 26, 2-((2S)-4-(2′-(((2R,7aS)-2-fluorotetrahydro-1H-pyrrolizin-7a(5H)-yl)methoxy)-3,4,5′,6′-tetrahydro-2H-spiro[naphthalene-1,7′-pyrano[2,3-d]pyrimidin]-4′-yl)-1-((E)-4-(4-methoxypiperidin-1-yl)but-2-enoyl)piperazin-2-yl)acetonitrile] | 0.0808 µM | 48.8 µM
4 | COC1CCN(C/C=C/C(=O)N2CCN(c3nc(OC[C@@]45CCCN4C[C@H](F)C5)nc4c3COC(c3c(F)cc(F)c5ccc(N)nc35)C4)C[C@@H]2CC#N)CC1 (single isomer, unassigned) [Example 23b] | 0.016 µM | 12.7 µM
5 | COC1CCN(C/C=C/C(=O)N2CCN(c3nc(OC[C@@]45CCCN4C[C@H](F)C5)nc4c3COC(c3nc(N)cc(C)c3C(F)(F)F)C4)C[C@@H]2CC#N)CC1 (stereo partly drawn) [Example 22, 2-((2S)-4-(7-(6-amino-4-methyl-3-(trifluoromethyl)-pyridin-2-yl)-2-(((2R,7aS)-2-fluorotetrahydro-1H-pyr-rolizin-7a(5H)-yl)methoxy)-7,8-dihydro-5H-pyrano[4,3-d]pyrimidin-4-yl)-1-((E)-4-(4-methoxypiperidin-1-yl)-but-2-enoyl)piperazin-2-yl)-acetonitrile] | 0.0056 µM | 0.122 µM
